In assay [1] the target is T1, Histidine-rich protein PFHRP-II (Plasmodium falciparum) (UniProt P05227).
T1 sequence (whole entry): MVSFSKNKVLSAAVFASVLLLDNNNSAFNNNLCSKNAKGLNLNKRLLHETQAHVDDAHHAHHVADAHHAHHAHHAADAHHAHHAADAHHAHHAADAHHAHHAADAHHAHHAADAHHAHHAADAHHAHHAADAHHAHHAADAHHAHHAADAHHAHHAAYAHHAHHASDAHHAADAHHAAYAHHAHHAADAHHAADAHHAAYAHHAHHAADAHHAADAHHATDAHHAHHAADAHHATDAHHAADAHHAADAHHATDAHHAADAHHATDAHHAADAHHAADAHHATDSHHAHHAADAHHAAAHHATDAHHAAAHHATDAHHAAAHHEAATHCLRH
The assay is described as follows: In vitro inhibition of beta-hematin formation in Plasmodium falciparum at 100 uM. In kind it is functional.

The subject of assay [2] is Plasmodium falciparum. The experiment in a line: Growth inhibition against Plasmodium falciparum FcB1 at 200 nM. Type of assay: functional.
Assay [3] relates to Plasmodium falciparum. The assay is described as follows: Inhibitory concentration against chloroquine-resistant Plasmodium falciparum FcB1. Type of assay: functional, organism-based.
Assay [4] relates to MRC5. The experiment in a line: Cytotoxic effect on human diploid embryonic lung cell line (MRC-5) using the colorimetric MTT assay. Type of assay: functional. A general note: Tetrazolium dyes change colour on reduction, which living cells bring about.
For assay [5], the system named is Plasmodium falciparum. The assay is described as follows: Growth inhibitory concentration against chloroquine-resistant Plasmodium falciparum. Type of assay: functional, organism-based.
For assay [6], the system named is MRC5. The experiment in a line: Selectivity index measured as CC50/IC50. Type of assay: functional, Homo sapiens.

The text below walks through data of ChEMBL document CHEMBL1137178, “Design, synthesis and antimalarial activity of a glyoxylylhydrazone library” (Bioorg Med Chem Lett, 2004).

Structures are written as SMILES. pIC50: −log10 of the molar value.

As to `Cc1cc(N/N=C/C(=O)NCCCCCCCNc2ccnc3cc(Cl)ccc23)nc(C)n1`, the inhibition in assay [1] was found to be 19%. This molecule yielded an inhibition at 0.2 µM in the assay on Plasmodium falciparum [2] of 0%.
For `O=C(/C=N/Nc1ccc(F)cc1F)NCCCCCCCNc1ccnc2cc(Cl)ccc12`, the inhibition in assay [1] amounted to 0%. The negative logarithm of the IC50 (pIC50) in the assay on Plasmodium falciparum [3] is 6.98.
In turn, `O=C(/C=N/Nc1ccccc1)NCCCCCCCNc1ccnc2cc(Cl)ccc12` returned an inhibition in assay [1] of 0%. This molecule also had an inhibition at 0.2 µM in the assay on Plasmodium falciparum [2] of 0%.
`O=C(/C=N/Nc1ccc([N+](=O)[O-])cc1[N+](=O)[O-])NCCCCCCCNc1ccnc2cc(Cl)ccc12` came in with a CC50 in the assay with MRC5 [4] of 11100 nM. The molecule also registered an inhibition in assay [1] of 25%. Besides, the negative logarithm of the IC50 (pIC50) in the assay with Plasmodium falciparum [3] was 7.89; in the assay with Plasmodium falciparum [5] it was 7.33. Moreover, the SI with MRC5 [6] is reported as 235.
Molecule `C=CCO/N=C/C(=O)NCCCCCCCNc1ccnc2cc(Cl)ccc12` registered an inhibition in assay [1] of 3%. Besides, in the assay on Plasmodium falciparum [3], the pIC50 was below 6.30.
`O=C(/C=N/Nc1ccc(Cl)nn1)NCCCCCCCNc1ccnc2cc(Cl)ccc12` registered an inhibition in assay [1] of 0%. The pIC50 in the assay on Plasmodium falciparum [3] was 6.74.
As to `CCOCC(=O)N/N=C/C(=O)NCCCCCCCNc1ccnc2cc(Cl)ccc12`, in assay [1], the inhibition is 12%. In the assay with Plasmodium falciparum [2], the inhibition at 0.2 µM turned out to be 59%.
For `CC(C)(C)O/N=C/C(=O)NCCCCCCCNc1ccnc2cc(Cl)ccc12`, in that order: 0% and 14%.
As to `O=C(/C=N/OCc1ccc([N+](=O)[O-])cc1)NCCCCCCCNc1ccnc2cc(Cl)ccc12`, the CC50 with MRC5 [4] turned out to be 1700 nM. The inhibition in assay [1] came out at 0%. The values for the pIC50 in the assay on Plasmodium falciparum [3] and in the assay on Plasmodium falciparum [5] were 8.30 and 7.21, respectively. Further, the SI with MRC5 [6] was determined as 27.
In the assay with MRC5 [4], `O=C(/C=N/Nc1ccnc2cc(Cl)ccc12)NCCCCCCCNc1ccnc2cc(Cl)ccc12` returned a cytotoxic concentration (CC50) of 1400 nM. Further, the inhibition in assay [1] was 0%. Also, the negative logarithm of the IC50 (pIC50) was 8.15 in the assay on Plasmodium falciparum [3] and 7.71 in the assay with Plasmodium falciparum [5]. Also, the SI with MRC5 [6] stood at 73.
The corresponding values for `COc1ccc2nc(N/N=C/C(=O)NCCCCCCCNc3ccnc4cc(Cl)ccc34)nnc2c1` are 2500 nM, 28%, 7.35, 7.13 and 34.
Consider `CCO/N=C/C(=O)NCCCCCCCNc1ccnc2cc(Cl)ccc12`, for which the inhibition in assay [1] came out at 0%. Moreover, the inhibition at 0.2 µM in the assay on Plasmodium falciparum [2] is 11%.
The molecule `O=C(/C=N/Nc1cnc2ccccc2n1)NCCCCCCCNc1ccnc2cc(Cl)ccc12` had an inhibition in assay [1] of 0%. The molecule also gave a negative-log IC50 (pIC50) with Plasmodium falciparum [3] of 7.05.
For `CC(C)(C)N/N=C/C(=O)NCCCCCCCNc1ccnc2cc(Cl)ccc12`, in that order: 0% and 7.22.
In assay [1], `CC(C)(C)c1ccc(N/N=C/C(=O)NCCCCCCCNc2ccnc3cc(Cl)ccc23)cc1` gave an inhibition of 1%. The molecule further came in with an inhibition at 0.2 µM in the assay on Plasmodium falciparum [2] of 32%.
On to `O=C(/C=N/NCc1ccccc1)NCCCCCCCNc1ccnc2cc(Cl)ccc12`, for which it took 14600 nM to reach half-maximal cytotoxicity in the assay on MRC5 [4] (CC50). The molecule further had an inhibition in assay [1] of 0%. Besides, the negative logarithm of the IC50 (pIC50) in the assay with Plasmodium falciparum [3] was 7.46; with Plasmodium falciparum [5], 6.79. In the assay on MRC5 [6], this molecule showed an SI of 91.
Turning to `COC(=O)c1sccc1N/N=C/C(=O)NCCCCCCCNc1ccnc2cc(Cl)ccc12`, the inhibition in assay [1] came out at 11%. Further, in the assay with Plasmodium falciparum [2], testing at 0.2 µM gave an inhibition of 13%.
In turn, `O=C(/C=N/Nc1nc(-c2cccs2)ns1)NCCCCCCCNc1ccnc2cc(Cl)ccc12` registered an inhibition in assay [1] of 19%. In the assay on Plasmodium falciparum [2], this molecule displayed an inhibition at 0.2 µM of 8%.
The molecule `Cc1cc(N/N=C/C(=O)NCCCCCCCNc2ccnc3cc(Cl)ccc23)nc2c1c(C)nn2C` had a CC50 with MRC5 [4] of 1800 nM. The inhibition in assay [1] is 0%. Also, the pIC50 was 7.52 in the assay on Plasmodium falciparum [3] and 7.19 in the assay with Plasmodium falciparum [5]. For the same molecule, the SI with MRC5 [6] came to 28.
For the molecule `CO/N=C/C(=O)NCCCCCCCNc1ccnc2cc(Cl)ccc12`, the inhibition in assay [1] came out at 4%. In the assay with Plasmodium falciparum [2], this molecule came in with an inhibition at 0.2 µM of 11%.
For `O=C(/C=N/Nc1ccc(F)c(Cl)c1)NCCCCCCCNc1ccnc2cc(Cl)ccc12`, the inhibition in assay [1] was found to be 0%. For the same molecule, the negative-log IC50 (pIC50) in the assay with Plasmodium falciparum [3] was 6.70.
The molecule `O=C(/C=N/Nc1c(Cl)cc(C(F)(F)F)cc1Cl)NCCCCCCCNc1ccnc2cc(Cl)ccc12` had a CC50 in the assay with MRC5 [4] of 9200 nM. This molecule registered an inhibition in assay [1] of 7%. Further, the negative logarithm of the IC50 (pIC50) in the assay with Plasmodium falciparum [3] is 7.80; with Plasmodium falciparum [5] it was 7.05. For the same molecule, the SI in the assay with MRC5 [6] stood at 104.
Consider `O=C(/C=N/Nc1ccc(Cl)cc1Cl)NCCCCCCCNc1ccnc2cc(Cl)ccc12`, for which the inhibition in assay [1] was found to be 12%. In addition, testing at 0.2 µM in the assay with Plasmodium falciparum [2] gave an inhibition of 0%.
For `O=C(/C=N/O)NCCCCCCCNc1ccnc2cc(Cl)ccc12`, in that order: 6% and 10%.
In assay [1], `O=C(/C=N/OCc1c(F)c(F)c(F)c(F)c1F)NCCCCCCCNc1ccnc2cc(Cl)ccc12` had an inhibition of 0%. In the assay on Plasmodium falciparum [2], this molecule yielded an inhibition at 0.2 µM of 33%.
The corresponding values for `O=C(/C=N/OCc1ccccc1)NCCCCCCCNc1ccnc2cc(Cl)ccc12` are 0% and 29%.
The corresponding values for `CN(/N=C/C(=O)NCCCCCCCNc1ccnc2cc(Cl)ccc12)c1ncccc1[N+](=O)[O-]` are 18% and 3%.
The molecule `Cc1ccc(N/N=C/C(=O)NCCCCCCCNc2ccnc3cc(Cl)ccc23)c(C)c1` registered an inhibition in assay [1] of 8%. This molecule had a negative-log IC50 (pIC50) in the assay with Plasmodium falciparum [3] of 7.07.
Consider `CCN(CC)CCCC(C)Nc1ccnc2cc(Cl)ccc12` (centres undefined) [CHLOROQUINE], for which, in the assay on MRC5 [4], the midpoint of cytotoxicity, the CC50, lay at 50000 nM. This molecule displayed an inhibition in assay [1] of 55%.

In general, inhibition refers to the relative decrease from the control value, in per cent. A high value points to a strong effect. The term pIC50 denotes −log10 of the IC50, conventionally taken in molar units. One may read the CC50 as the concentration at which the toxic effect on the cells reaches its halfway point. A lower CC50 goes with harm at low concentration.
